Experimental data taken from US5872107A, “Treatment of urogenital cancer with boron neutron capture therapy” (Emory University, priority 1997, dated 1999).
Where “and” joins values, the source holds several entries; their conditions need not be identical. Identical values can stand only once. Entries after “also recorded” stand apart in the source; their conditions may differ.

How the values were obtained:
[1] = Toxicity study: weight change and survival of normal Swiss mice; type: in vivo, Swiss female mice; details: 30 mg/kg/day i.p.
Procedure: A toxicity study was conducted on 6-week-old Swiss female mice treated with CDU and CFAU at 30 mg/kg/day. The compounds were prepared in sterile DMSO and injected intraperitoneally (0.1 mL). DMSO and water were used as controls, with the same injection volume as that used for the CDU and CFAU solutions. The dosing schedule used was once a day for 6 days, and the mice were weighed biweekly for 28 days. Results shown in Table 3 somewhat correlate with the cytotoxicity assays in vitro.

[2] = tested on: primary human peripheral blood mononuclear (PBM) cells; experiment: Cellular uptake and intracellular phosphorylation, PBM cells; type: cell-based
Text: (§1) Carboranyl-containing nucleosides and oligonucleotides, which are lipophilic and have a high content of boron atoms, are particularly suited for use in BNCT of urogenital tumors. Preferred compounds include 5-carboranyl-2'-deoxyuridine (CDU) and 5-o-carboranyl-1-(2-deoxy-2-fluoro-β-D-arabinofuranosyl)uracil (CFAU). […] The entrapment of this molecule in cells allows for the enhancement of the tumor-to-blood ratio for BNCT. CFAU has increased glycosidic bond stability conferred by the β-fluorine group positioned on the 2'-carbon of the nucleoside.
It has been discovered that boron neutron capture therapy, optionally combined with antisense oligonucleotide therapy, can be used in the treatment of urogenital cancer, and in particular, that of the prostate, bladder, and kidney. Any boron-containing compound that is sufficiently lipophilic to pass through the appropriate urogenital membranes in a quantity high enough to achieve therapy on irradiation with low-energy neutrons can be used. Carboranyl-containing nucleosides and oligonucleotides, which are lipophilic and have a high content of boron atoms, are particularly suited for use in BNCT of urogenital cancer. Preferred compounds include 5-carboranyl-2'-deoxyuridine (CDU) and 5-o-carboranyl-1-(2-deoxy-2-fluoro-β-D-arabinofuranosyl)uracil (CFAU). […]

[3] = tested on: xenographed human prostate tumor; experiment: Accumulation of CDU in xenographed human prostate tumor, brain and serum of nude mice; type: in vivo
Text: The development of the immunodeficient athymic nude mouse has permitted the establishment of human tumors in serial transplantation which provides a representative model of the human disease state. This system, which uses the subcutaneous or subrenal capsule assay is particularly useful in assessing new therapeutic strategies in the treatment of human malignancies and ensures the availability of a constant source of non-attenuated fresh human tumor cells.
Any of these systems can be used to evaluate the extent of accumulation of a selected boron-containing compound in a selected urogenital cancer cell line, or the effect of irradiation of the accumulated compound on that cell line. A detailed example of the evaluation of the accumulation of CDU in a xenographed human prostate tumor obtained from nude mice treated intraperitoneally with 5 mg/kg of tritiated CDU (15 μCi/mouse) is provided in Example 5.
To analyze the concentration of ^10 B-containing compounds in urogenital tissue, the tumor is removed from the animal and then lyophylized. The ^10 B-containing compounds are extracted with a methanol/water solution, and then counted using known methods.
Table 1 provides a summary of the accumulation of CDU in a xenographed human prostate tumor on nude mice treated intraperitoneally with 5 mg/kg of tritiated CDU (15 μCu/mouse). […] The compound partitions in a ratio of approximately 2:1 in the prostate versus blood serum.

[4] = tested on: human lymphoma (CEM) cells; experiment: Cellular uptake and intracellular phosphorylation, CEM cells; type: cell-based
Text: as §1
It has been discovered that boron neutron capture therapy, optionally combined with antisense oligonucleotide therapy, can be used in the treatment of urogenital cancer, and in particular, that of the prostate, bladder, and kidney. Any boron-containing compound that is sufficiently lipophilic to pass through the appropriate urogenital membranes in a quantity high enough to achieve therapy on irradiation with low-energy neutrons can be used. Carboranyl-containing nucleosides and oligonucleotides, which are lipophilic and have a high content of boron atoms, are particularly suited for use in BNCT of urogenital cancer. Preferred compounds include 5-carboranyl-2'-deoxyuridine (CDU) and 5-o-carboranyl-1-(2-deoxy-2-fluoro-β-D-arabinofuranosyl)uracil (CFAU). […] The entrapment of this molecule in cells allows the enhancement of the tumor-to-blood ratio for BNCT. CFAU has increased glycosidic bond stability conferred by the β-fluorine group positioned on the 2'-carbon of the nucleoside.

[5] = Brain uptake of CDU after loading dose and three hour intravenous infusion; type: in vivo, Sprague-Dawley rats
Procedure: Two adult male sprague-dawley rats weighing 305 and 312 g were used to examine the brain uptake of CDU. A loading dose of 5 mg/kg CDU in […] of DMSO was administered intravenously over a one minute period followed by three hour infusion of CDU at the rate of 5 mg/h/kg (50 μl/h) using an infusion […]. At the end of infusion blood samples were collected and rats were sacrificed. The brains were dissected and frozen at -20° C. until analysis.
Concentrations of CDU in plasma, brain, and urine were determined by HPLC. For the determination of CDU in brain, the brain tissue was homogenized in a 1:2 (g:ml) ratio with isotonic sodium phosphate buffer, pH 7.4. To 200 μl of plasma or brain homogenate in a glass test tube, 50 μl of internal standard (20 μg/ml progesterone) and 5 ml of methylene chloride was added. Tubes were shaken for 15 minutes at low speed on a shaker, centrifuged for 5 minutes at 2000 rpm, and the plasma layer was aspirated off using a vacuum system. The remaining methylene chloride was transferred to a glass culture tube and evaporated to dryness under a stream of nitrogen gas at ambient temperature. The residue was reconstituted with 250 μl of methanol and injected onto HPLC system.

[6] = brain, 1 hr after CDU, 5 mg/kg tritiated CDU i.p.
[7] = brain, 2 hr after CDU, 5 mg/kg tritiated CDU i.p.
[8] = serum, 1 hr after CDU, 5 mg/kg tritiated CDU i.p.
[9] = serum, 2 hr after CDU, 5 mg/kg tritiated CDU i.p.
[10] = tumor, 2 hr after CDU, 5 mg/kg tritiated CDU i.p.
[11] = i.v. infusion to steady state, each of two rats, 5 mg/kg, 180 min

Which “weight loss after 1 week (in words)” value ([1]; CFAU and CDU compared) does the source give for 5-carboranyl-2'-deoxyuridine [CDU] here?
Its value is “comparable weight loss after 1 week”.

And the “weight recovery at 4 weeks (in words)” value ([1]; surviving animals)?
Its value is “all the surviving animals recovered their weight loss to control untreated levels”.

And the “% of weight gained or lost on week 1” value ([1]; week 1, once a day for 6 days)?
The value was -7.4%.

And the “% of weight gained or lost on week 2” value ([1]; week 2, once a day for 6 days)?
Its value is 0.1%.

And the “% of weight gained or lost on week 3” value ([1]; week 3, once a day for 6 days)?
The value was 4.8%.

What about the “% of weight gained or lost on week 4” value ([1]; week 4, once a day for 6 days) of the same substance?
Its value is 11.2%.

And the “survival at week 4, alive/total” value ([1]; week 4, once a day for 6 days)?
Its value is 5/5.

What about the “survival at week 4 (%)” value ([1]; week 4, once a day for 6 days, 40320 min) of the same substance?
The value was 100%.

And the “intracellular phosphorylation in PBM cells (in words)” value [2]?
The value was “intracellularly phosphorylated”.

What about the “uptake by PBM cells (in words)” value [2] of the same substance?
The value was “taken up”.

What about the “Mean DPM/mg of dry weight, brain, 1 hr” value [3, 6] of the same substance?
Its value is 42.8 DPM/mg of dry weight.

What about the “pmole/mg of dry weight, brain, 1 hr” value [3, 6] of the same substance?
The value was 0.32 pmole/mg of dry weight.

What about the “Mean DPM/mg of dry weight, brain, 2 hr” value [3, 7] of the same substance?
Its value is 23.4 DPM/mg of dry weight.

And the “pmole/mg of dry weight, brain, 2 hr” value [3, 7]?
The value was 0.17 pmole/mg of dry weight.

What about the “accumulation in the prostate cancer cells (in words)” value ([3]; over brain tissue and serum, 5 mg/kg tritiated CDU i.p.) of the same substance?
Its value is “significantly accumulates in the prostate cancer cells, and preferentially so, over brain tissue and serum”.

And the “Mean DPM/mg of dry weight, serum, 1 hr” value [3, 8]?
Its value is 181.0 DPM/mg of dry weight.

What about the “pmole/mg of dry weight, serum, 1 hr” value [3, 8] of the same substance?
Its value is 1.33 pmole/mg of dry weight.

And the “Mean DPM/mg of dry weight, serum, 2 hr” value [3, 9]?
Its value is 111.0 DPM/mg of dry weight.

What about the “pmole/mg of dry weight, serum, 2 hr” value [3, 9] of the same substance?
Its value is 0.82 pmole/mg of dry weight.

What about the “pmole/mg of dry weight, tumor, 1 hr” value ([3]; tumor, 1 hr after CDU, 5 mg/kg tritiated CDU i.p.) of the same substance?
Its value is 3.60 pmole/mg of dry weight.

And the “Mean DPM/mg of dry weight, tumor, 1 hr” value ([3]; tumor, 1 hr after CDU, 5 mg/kg tritiated CDU i.p. (15 μCi/mouse))?
Its value is 489.1 DPM/mg of dry weight.

What about the “Mean DPM/mg of dry weight, tumor, 2 hr” value [3, 10] of the same substance?
Its value is 256.7 DPM/mg of dry weight.

And the “pmole/mg of dry weight, tumor, 2 hr” value [3, 10]?
Its value is 1.89 pmole/mg of dry weight.

And the “intracellular formation of CDU 5'-monophosphate (in words)” value ([4]; cells not separated (CEM and PBM named))?
Its value is “CDU 5'-monophosphate is formed intracellularly; also recorded: CDU-5'-monophosphate is formed intracellularly”.

What about the “intracellular phosphorylation in CEM cells (in words)” value ([4]; human lymphoma (CEM) cells) of the same substance?
The value was “intracellularly phosphorylated”.

What about the “uptake by CEM cells (in words)” value ([4]; human lymphoma (CEM) cells) of the same substance?
Its value is “taken up”.

And the “brain:unbound plasma CDU ratio” value ([5]; i.v. infusion to steady state, each of two rats)?
Its value is 10.26 and 7.87.

And the “brain CDU concentration” value [5, 11]?
The value was 2.77 µg/mL and 1.81 µg/mL.

And the “brain:total plasma CDU concentration ratio” value [5, 11]?
The value was 0.47 and 0.36.

And the “total plasma CDU concentration” value [5, 11]?
The value was 5.92 µg/mL and 5.01 µg/mL.

And the “brain concentrations as % of total plasma CDU concentrations” value ([5]; i.v. infusion to steady state, two rats, 5 mg/kg, 180 min)?
The value was 36 to 47%.

And the “brain:plasma ratio based on unbound vs total plasma concentrations” value ([5]; unbound compared to total)?
Its value is 20 fold.
